Key:
OGA = experiment: Western blot of OGA levels in treated COS-7 cells; assay type: cell-based, African green monkey; settings: 50 μM, 24 h
Protocol: (§1) Westernlectin blots: Samples were run on 10% SDS polyacrylamide gels and transferred onto nitrocellulose membranes (Biorad). Membranes were blocked for 1 h in PBS containing 0.1% Tween-20 (PBS-T) containing 1% (unless otherwise stated) bovine serum albumin (BSA), and probed with the appropriate primary antibody or lectin in 1% BSA in PBS-T overnight at 4° C. Blots were washed for 1 hr with PBS-T, and blocked for a further 30 min with 1% BSA in PBS-T at room temperature. They were then probed with the appropriate horseradish peroxidise (HRP)-conjugated secondary antibodyprobe in 1% BSA in PBS-T at room temperature for 1 h, followed by washing in PBS-T for 1 h. Blots were developed with SuperSignal West Pico Chemiluminescent Substrate (Pierce) and exposed to CL-XPosure film (Pierce). Densitometry was performed using ImageQuant 5.2 (Molecular Dynamics), and fits to the data were made using GRAFIT^41.
(§2) Antibodieslectins: O-GlcNAc levels were assessed primarily using CTD110.6 (Covance), but RL2 (Abcam) and HGAC85 (Abcam) were also tested. Actin was probed using JLA20 (Developmental Studies Hybridoma Bank). OGA levels were assessed using a polyclonal anti-OGA antibody which was a kind gift from Dr. Gerald Hart and OGT levels using H-300 (Santa Cruz Biotechnology). nup62 was probed using mAb 414 (Covance). […]

[1] = tested on: O-GlcNAc levels in primary CLL cells; experiment: Western blot of O-GlcNAc levels in primary CLL cells; assay type: cell-based; settings: 0-250 μM, 5 days
Protocol: (§3) Primary CLL cells, obtained from Dr. David Spaner at the University of Toronto, were tested for their response to Ac-5SGlcNAc (9). Cells were plated at a confluency of 1 million cells/mL, and treated with between 0-250 μM 9, in the presence or absence of cytokine (1000 U/mL IL-2 and 1 μg/mL Resiquimod) stimulation to mimic cancer progression. Cells were observed over the course of 5 days, and harvested after this time into SDS-PAGE loading buffer before being subjected to western blotting.

OGT = experiment: Western blot of OGT levels in treated COS-7 cells; assay type: cell-based, African green monkey; settings: 50 μM, 24 h
Protocol: as §1, §2

[2] = tested on: EMEG32 heterozygous mouse embryonic fibroblast cells; experiment: Cell proliferation growth curves over 5 days and western blot, EMEG32 heterozygous fibroblasts; assay type: cell-based; settings: 50 μM, 5 days
Protocol: (A) Cell proliferation curves over the course of 5 days for CHO cells following no (circles), 50 μM Ac-GlcNAc (squares) or 50 μM Ac-5SGlcNAc (triangles) treatment. The error bars indicate the deviation from the mean for triplicate measurements. […] Upper panel, probed with anti-O-GlcNAc antibody (CTD110.6); lower panel, probed with anti-actin antibody. (B) Cell proliferation curves over the course of 5 days for EMEG heterozygous mouse embryonic fibroblast cells following no (circles), 50 μM Ac-GlcNAc (squares) or 50 μM Ac-5SGlcNAc (triangles) treatment. The error bars indicate the deviation from the mean for triplicate measurements. […] Upper panel, probed with anti-O-GlcNAc antibody (CTD110.6); lower panel, probed with anti-actin antibody. (C) Western blots of CHO cell lysates following no (C) or Ac-5SGlcNAc administration at 50 μM for 4 days. Probed with (from top to bottom) anti-Spl antibody, anti O-GlcNAc (CTD110.6) antibody and anti-actin antibody. Full blot of the anti-Sp 1 is shown in panel (d). (D) Western blots of CHO cell lysates following no (C) or Ac-5SGlcNAc administration at 50 μM for 4 days. The full blot probed with anti-Spl antibody is shown. (E) Western blots of COS-7 cell lysates following no (C) or 50 μM Ac-5SGlcNAc treatment for 24 h. Following treatment, the media was replaced with no inhibitor, and cells were harvested at the time points indicated (between 0 and 24 h). Upper panel, probed with anti-O-GlcNAc antibody (CTD110.6); lower panel, probed with anti-actin antibody.
Cellular responses to Ac-5SGlcNAc (9) treatment and consequent decreases in O-GlcNAc levels were evaluated. […] We quantitatively evaluated cell proliferation and established growth curves over the course of 5 days in both CHO and EMEG32 heterozygous mouse embryonic fibroblast cells treated with 50 μM Ac-5SGlcNAc (9), 50 μM Ac-GlcNAc (G), or vehicle (FIGS. 5A-B).

Primary CLL cells = experiment: Primary CLL cells, proliferation and toxicity with or without cytokine stimulation; assay type: cell-based; settings: 5 days
Protocol: as §3

O-GlcNAc on nup62 = O-GlcNAc on nup62 immunoprecipitated from treated cells, chemoenzymatic labelling; assay type: cell-based; settings: 250 μM, 24 h; streptavidin probe
Protocol: Immunoprecipitation of nup62: nup62 was immunoprecipitated from COS-7 cell lysates using the procedure described in Ref.^9. Following washing of the beads, and prior to elution, nup62 was incubated in the absence or presence of BtGH84 (overexpressed and purified as described previously^43) shaking for 2 h at room temperature, which would allow O-GlcNAc levels on nup62 to be assessed. nup62 was subsequently eluted from the beads upon addition of SDS loading buffer and boiled for 10 min.
Click-iT® kit for labelling O-GlcNAc residues: The ‘Click-iT® O-GlcNAc Enzymatic Labeling System’ was purchased from Invitrogen, and essentially the manufacturer's protocol was followed with some alterations. nup62 was immunoprecipitated and eluted from the beads in 1% SDS in 20 mM Hepes, pH 7.9, and boiled for 10 min; this was used as the substrate for the chemoenzymatic labeling using UDP-GalNAz and GalTl. Following the overnight reaction, biotinylated phosphine (in 20% DMF) was added at a final concentration of 50 μM and incubated at 37° C. for […]. The reaction was stopped by the addition of SDS-PAGE loading buffer, and the samples were boiled for 10 min. Samples were run on a gel and transferred. The same procedure as described for the western blots was used, starting from the second blocking step. Blots were then probed with HRP-conjugated streptavidin (Pierce). […]

CC(=O)NC1C(OC(C)=O)SC(COC(C)=O)C(OC(C)=O)C1OC(C)=O [Compound 9, N-Acetyl-1,3,4,6-tetra-O-acetyl-α-D-5-thio-glucosamine]
OGA levels (OGA): compensatory decrease in OGA levels | O-GlcNAc levels [1]: O-GlcNAc levels were decreased in a dose-dependent fashion | OGT levels (OGT): increase in OGT levels | growth rate ([2]; EMEG32 heterozygotes): indistinguishable but were both lower than vehicle treated cells | O-GlcNAc levels at last time point of growth curve ([2]; EMEG heterozygous cells): O-GlcNAc levels are still significantly decreased in cells treated with Ac-5SGlcNAc | toxicity to cells (Primary CLL cells; 0-250 μM, unstimulated or stimulated): not toxic to either unstimulated or stimulated cells | proliferation of cytokine-stimulated cells (Primary CLL cells; 50 μM and higher, IL-2 and Resiquimod stimulation): the proliferation that was obvious in untreated stimulated cells was absent | O-GlcNAc modification of immunoprecipitated nup62 (O-GlcNAc on nup62): shows almost no modification
